{"source": "ChEMBL document CHEMBL3351562", "about": "“Oxo- and thiooxo-imidazo[1,5-c]pyrimidine molecule library: beyond their interest in inhibition of Brucella suis histidinol dehydrogenase, a powerful protection tool in the synthesis of histidine analogues” (Bioorg Med Chem Lett, 2014)"}
{"assay": "Inhibition of Brucella suis histidinol dehydrogenase assessed as NADH released as a by-product preincubated for 5 min at 30 degC by spectrophotometric method", "units": {"IC50": "µM"}}
{"smiles": "CCCCCc1ccc(C#Cc2ccc(CC(=O)[C@@H]3Cc4cncn4C(=S)N3)cc2)cc1", "IC50": 322}
{"smiles": "Cc1ccc(CC(=O)[C@@H](N)Cc2c[nH]cn2)cc1", "IC50": 0.015}
{"smiles": "O=C(Cc1ccc(F)cc1F)[C@@H]1Cc2cncn2C(=O)N1", "IC50": 143}
{"smiles": "COC(=O)[C@@H]1Cc2cncn2C(=O)N1", "IC50": 532}
{"smiles": "O=C(Cc1ccc(Br)cc1)[C@@H]1Cc2cncn2C(=O)N1", "IC50": 98}
{"smiles": "Cc1ccc(CC(=O)[C@@H]2Cc3cncn3C(=S)N2)cc1", "IC50": 95}
{"smiles": "N[C@@H](Cc1c[nH]cn1)C(=O)Cc1ccc(F)cc1F", "IC50": 0.01}
{"smiles": "O=C(Cc1ccc(Br)cc1)[C@@H]1Cc2cncn2C(=S)N1", "IC50": 105}
{"smiles": "O=C(Cc1ccc(Cl)cc1)[C@@H]1Cc2cncn2C(=S)N1", "IC50": 74}
{"smiles": "O=C(Cc1ccc(-c2ccccc2)cc1)[C@@H]1Cc2cncn2C(=O)N1", "IC50": 86}
{"smiles": "Cc1ccc(CC(=O)[C@@H]2Cc3cncn3C(=O)N2)cc1", "IC50": 113}
{"smiles": "CCCCCc1ccc(C#Cc2ccc(CC(=O)[C@@H]3Cc4cncn4C(=O)N3)cc2)cc1", "IC50": 175}
{"smiles": "COC(=O)[C@@H]1Cc2cncn2C(=S)N1", "IC50": 18}
{"smiles": "N[C@@H](Cc1c[nH]cn1)C(=O)Cc1ccc(-c2ccccc2)cc1", "IC50": 0.012}
{"smiles": "CCCCCc1ccc(C#Cc2ccc(CC(=O)[C@@H](N)Cc3c[nH]cn3)cc2)cc1", "IC50": 0.009}
{"smiles": "O=C(Cc1ccc(-c2ccccc2)cc1)[C@@H]1Cc2cncn2C(=S)N1", "IC50": 5}
{"smiles": "N[C@@H](Cc1c[nH]cn1)C(=O)Cc1ccc(Br)cc1", "IC50": 0.006}
{"smiles": "O=C(Cc1ccc(F)cc1F)[C@@H]1Cc2cncn2C(=S)N1", "IC50": 95}
{"smiles": "O=C(Cc1ccc(Cl)cc1)[C@@H]1Cc2cncn2C(=O)N1", "IC50": 92}
{"smiles": "N[C@@H](Cc1c[nH]cn1)C(=O)Cc1ccc(Cl)cc1", "IC50": 0.012}
